Data reported in PubChem BioAssay (NCI).
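Method: 48-hour compound exposure of cells in 96-well plates, five concentrations, linear interpolation of endpoints. Definition used: TGI = concentration required for complete inhibition of growth.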

Tests used:
Assay in all cases: growth of human tumour cells (NCI), 48 h
786-0 renal = system: 786-0 renal
HCT-15 colon = system: HCT-15 colon
HOP-62 NSCLC = system: HOP-62 NSCLC
KM12 colon = system: KM12 colon
MALME-3M melanoma = system: MALME-3M melanoma
NCI-H460 lung = system: NCI-H460 lung
OVCAR-4 ovarian = system: OVCAR-4 ovarian
SN12C renal = system: SN12C renal
U251 CNS = system: U251 CNS
UO-31 renal = system: UO-31 renal
K-562 leukemia = system: K-562 leukemia

SMILES	TGI (786-0 renal)	TGI (HCT-15 colon)	TGI (HOP-62 NSCLC)	TGI (KM12 colon)	TGI (MALME-3M melanoma)	TGI (NCI-H460 lung)	TGI (OVCAR-4 ovarian)	TGI (SN12C renal)	TGI (U251 CNS)	TGI (UO-31 renal)	TGI (K-562 leukemia)
[N-]=[N+]=CC(=O)OCCCCl	> 100 µM	> 100 µM	> 100 µM	> 100 µM	> 100 µM	> 100 µM	> 100 µM	> 100 µM	> 100 µM	> 100 µM	
COc1cc2c(cc1OC)C(=O)/C(=C/c1cc(C)cc(C)c1)C2	> 44.6 µM	> 47.8 µM	> 61.2 µM	13.5 µM		5.1 µM	> 100 µM	32.6 µM	> 81.8 µM	> 100 µM	> 38 µM
Cn1c(=O)c2c(nc3sc4ccccc4c(=O)n32)n(C)c1=O	> 100 µM	> 100 µM	> 100 µM	> 100 µM		> 100 µM	> 100 µM	> 100 µM	> 100 µM	> 100 µM	> 100 µM
O=C1CN(c2cccc(Cl)c2)C(=O)CN1NCNN1CC(=O)N(c2cccc(Cl)c2)CC1=O	> 100 µM	> 100 µM	> 100 µM	> 100 µM	> 100 µM	> 100 µM	> 100 µM	> 100 µM	> 100 µM	> 100 µM	
COc1cc2c(/C=C3/C(=O)N(C)c4ccc(O)cc43)c(Cl)[nH]c2cc1C	15 µM	12.8 µM	3.94 µM	6.64 µM		19.8 µM	21.6 µM	17 µM	17.6 µM	24.5 µM	11.7 µM
CC(=O)OC1[C@H](OC(C)=O)C2=C(C)[C@@H](OC(C)=O)C[C@@]2(C(C)(C)O)[C@@H](OC(C)=O)[C@H]2[C@@]1(C)[C@@H](OC(C)=O)CC(OC(C)=O)[C@]21CO1 (some centres undefined)	> 100 µM	> 100 µM	> 100 µM	> 100 µM	> 100 µM		> 100 µM	> 100 µM	> 100 µM	> 100 µM	> 100 µM
Cc1cc(S(=O)(=O)Nc2n[nH]c(N)n2)c(Cl)cc1Cl	> 10 µM	> 10 µM	> 10 µM	> 10 µM	> 10 µM	> 10 µM	> 10 µM	> 10 µM	> 10 µM		> 10 µM
O=C(Nc1ccc(S(=O)(=O)/N=c2\ncccn2C(=O)C(C(F)(F)F)C(F)(F)F)cc1)C(C(F)(F)F)C(F)(F)F	> 100 µM	> 100 µM	> 100 µM	> 100 µM	> 100 µM	> 100 µM	> 100 µM	> 100 µM	> 100 µM		> 100 µM
CC1OC2OC3C(OCC(O)C3O)OC(=O)[C@]34CCC(C)(C)CC3C3=CCC5[C@@]6(C)C[C@H](O)[C@H](OC7OC(CO)C(O)C(O)C7OC7OCC(OC(=O)CC(C)(O)CC(=O)OC1C(O)C2O)C(O)C7O)[C@@](C)(CO)C6CC[C@@]5(C)[C@]3(C)CC4 (some centres undefined)	25.6 µM	19.2 µM	6.8 µM	10.5 µM	12.3 µM	23.9 µM		21.1 µM	12.6 µM	18.5 µM	
Clc1ccc(C[P+](c2ccccc2)(c2ccccc2)c2ccccc2)cc1Cl	17 µM	44.5 µM	21.2 µM	11.3 µM	7.8 µM	12.8 µM	19.5 µM	15.3 µM	10.6 µM		> 100 µM
Cc1ccc(C2(c3ccc(F)cc3)OC(=O)c3ccccc32)c(O)c1 (centres undefined)	32.1 µM	32.7 µM	28.8 µM	51.6 µM		35.5 µM	41.1 µM	27.9 µM	46.2 µM	22.4 µM	> 100 µM
O=C(O)/C=C/c1ccc2c(c1)CC1(Cc3ccccc3C1)C2	> 100 µM	> 100 µM	> 100 µM	> 100 µM	> 100 µM		> 100 µM	> 100 µM	> 100 µM	> 100 µM	> 100 µM
CCOC(=O)c1c(SC(=O)c2ccc(OC)cc2)n(-c2ccccc2)c(=S)n(-c2ccccc2)c1=O	> 100 µM	47.8 µM	> 100 µM	> 100 µM	> 100 µM	> 100 µM	> 100 µM	> 100 µM	> 100 µM		> 100 µM
O=C(Cn1c(C(=O)c2ccccc2)nc2ccccc21)c1ccccc1	> 100 µM	> 100 µM	> 100 µM	> 100 µM	> 100 µM	> 100 µM	> 100 µM	> 100 µM	> 100 µM	> 100 µM	
C/C(=N\Nc1nc2ccccc2s1)c1cc2ccccc2cn1	9.35 µM	34.3 µM	41.7 µM	94.4 µM	> 100 µM	33.7 µM	62.2 µM	30.8 µM	> 100 µM	14.8 µM	
